Assay results from US20170052170A1, “NOVEL CELL LINES AND METHODS” (priority 2009, published 2017).

Molecular target: T1, sweet taste receptor (endogenously expressed T1R2/T1R3) (Homo sapiens, UniProt Q7RTX0+Q8TE23)
T1 construct: endogenous in cells; host or cells: HuTu (ATCC HTB-40), H716 (ATCC CCL-251), HEK 293T (ATCC CRL-11268); some with prior UV treatment
T1 sequence (Q8TE23 20-839): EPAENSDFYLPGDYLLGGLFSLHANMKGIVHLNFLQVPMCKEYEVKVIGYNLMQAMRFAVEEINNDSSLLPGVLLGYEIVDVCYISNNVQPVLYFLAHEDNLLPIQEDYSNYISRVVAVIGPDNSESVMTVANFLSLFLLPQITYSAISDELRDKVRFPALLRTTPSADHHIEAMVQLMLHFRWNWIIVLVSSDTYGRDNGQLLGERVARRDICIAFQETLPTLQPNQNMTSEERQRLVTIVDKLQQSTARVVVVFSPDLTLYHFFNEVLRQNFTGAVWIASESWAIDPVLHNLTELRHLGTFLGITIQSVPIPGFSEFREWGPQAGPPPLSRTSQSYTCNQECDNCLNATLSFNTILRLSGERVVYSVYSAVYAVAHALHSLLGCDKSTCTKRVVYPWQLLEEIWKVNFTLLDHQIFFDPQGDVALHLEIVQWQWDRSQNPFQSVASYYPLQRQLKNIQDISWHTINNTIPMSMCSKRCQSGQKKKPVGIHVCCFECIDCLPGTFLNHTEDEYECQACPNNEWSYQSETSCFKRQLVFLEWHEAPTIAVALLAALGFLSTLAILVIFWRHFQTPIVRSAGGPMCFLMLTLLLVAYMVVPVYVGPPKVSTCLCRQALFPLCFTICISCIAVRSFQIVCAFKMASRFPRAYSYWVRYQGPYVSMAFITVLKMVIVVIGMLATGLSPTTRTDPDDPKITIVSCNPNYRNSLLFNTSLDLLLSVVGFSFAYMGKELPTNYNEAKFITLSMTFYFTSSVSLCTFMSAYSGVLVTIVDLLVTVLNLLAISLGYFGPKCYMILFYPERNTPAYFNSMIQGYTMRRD
T1 sequence (Q7RTX0 21-852): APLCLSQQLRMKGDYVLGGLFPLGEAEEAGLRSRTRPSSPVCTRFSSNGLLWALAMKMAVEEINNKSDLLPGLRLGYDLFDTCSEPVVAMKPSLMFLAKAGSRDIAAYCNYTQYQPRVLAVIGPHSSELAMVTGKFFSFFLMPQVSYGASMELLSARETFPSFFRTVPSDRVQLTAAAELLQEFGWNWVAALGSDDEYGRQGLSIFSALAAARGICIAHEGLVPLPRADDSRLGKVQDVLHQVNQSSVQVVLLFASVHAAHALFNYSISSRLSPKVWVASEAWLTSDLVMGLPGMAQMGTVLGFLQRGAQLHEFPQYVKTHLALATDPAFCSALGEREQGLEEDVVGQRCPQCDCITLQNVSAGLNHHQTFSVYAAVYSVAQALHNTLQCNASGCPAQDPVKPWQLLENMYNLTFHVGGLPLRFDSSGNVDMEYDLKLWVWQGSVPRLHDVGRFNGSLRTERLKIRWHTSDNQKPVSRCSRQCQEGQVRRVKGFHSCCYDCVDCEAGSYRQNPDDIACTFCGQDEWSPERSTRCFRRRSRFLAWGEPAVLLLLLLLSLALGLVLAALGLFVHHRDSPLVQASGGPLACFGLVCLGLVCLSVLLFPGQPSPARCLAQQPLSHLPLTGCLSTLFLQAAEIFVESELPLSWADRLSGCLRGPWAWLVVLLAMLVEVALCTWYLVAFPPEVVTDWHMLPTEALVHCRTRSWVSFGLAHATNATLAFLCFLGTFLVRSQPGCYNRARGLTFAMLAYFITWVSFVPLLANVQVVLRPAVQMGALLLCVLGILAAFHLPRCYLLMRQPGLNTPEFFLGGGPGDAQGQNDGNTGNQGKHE
Assay: calcium flux response to fructose of cells cultured from individual isolated HuTu, H716 and 293T cells
Assay type: cell-based
Settings: fructose final concentration 15 mM, control response subtracted
Protocol: FIGS. 28 A-C depict representative traces of the functional cell-based response of cells of the invention to the addition of fructose (to a final concentration of 15 mM) compared to background. Cells cultured from individual isolated cells were tested (black traces) compared to control cells (gray traces). […] The cell-based assay was designed to report calcium flux using a fluorescent calcium signaling dye. Fluorescent assay response is plotted along the Y-axis and time is indicated along the X-axis. Arrows indicate the timepoint at which fructose was added. FIG. 28A depicts traces from cells cultured from an individual HuTu cell compared to control. FIG. 28B depicts traces from cells cultured from an individual H716 cell compared to control. FIG. 28C depicts traces from cells cultured from an individual 293T cell compared to control.
In a specific aspect, provided herein is a method for isolating a cell that endogenously expresses a sweet taste receptor T1R2 subunit and/or sweet taste receptor T1R3 subunit, wherein the method comprises the steps of: • a) providing a population of cells; • b) introducing into the cells a signaling probe or molecular beacon that detects expression of T1R2 and/or introducing into the cells a molecular beacon that detects expression of T1R3; and • c) isolating cells that express a sweet taste receptor T1R2 subunit and/or sweet taste receptor T1R3 subunit. […]

SMILES: O=C(CO)[C@@H](O)[C@H](O)[C@H](O)CO [fructose]
- functional cell-based (calcium flux) response compared to control cells: higher response
